Data: US12077503B2, “Substituted cyclic amides and their use as herbicides” (FMC CORPORATION, priority 2015, dated 2024)

What was measured:
Assay type in all cases: in vivo
[1] = test system: pigweed (Amaranthus retroflexus); experiment: Test A preemergence
Kochia (Kochia scoparia) [2] = experiment: Test A preemergence
Method in brief: (§1)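 Treatment is preemergence as a directed soil spray after planting, or postemergence at the one- to two-leaf stage, with test chemical in a non-phytotoxic solvent mixture plus surfactant. Plants stay in the greenhouse about 10 d before visual injury scoring on a 0 to 100 scale versus untreated controls.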

[3] = test system: ragweed (common ragweed, Ambrosia elatior); experiment: Test A preemergence
Method in brief: as §1

[4] = test system: barnyardgrass (Echinochloa crus-galli); experiment: Test A preemergence
Method in brief: as §1

[5] = test system: ryegrass, Italian (Italian ryegrass, Lolium multiflorum); experiment: Test A preemergence
Method in brief: as §1

[6] = test system: giant foxtail (Setaria faberii); experiment: Test A preemergence
Method in brief: as §1

rice (Oryra sativa) = experiment: Test B flooded paddy test; details: Flood, 250 g ai/ha; 0 to 100 scale where 0 is no effect and 100 is complete control; 13 to 15 d
Method in brief: (§2)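 Rating scale 0–100 (visual, vs untreated controls) after a 13–15 d greenhouse period; application to the flood layer, 3 cm above soil and maintained; plants at 2-leaf stage when treated.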

[7] = test system: sedge, umbrella (small-flower umbrella sedge, Cyperus difformis); experiment: Test B flooded paddy test; details: Flood, 250 g ai/ha; 0 to 100 scale where 0 is no effect and 100 is complete control; 13 to 15 d
Method in brief: as §2

[8] = test system: barnyardgrass (Echinochloa crus-galli); experiment: Test B flooded paddy test; details: Flood, 250 g ai/ha; 0 to 100 scale where 0 is no effect and 100 is complete control; 13 to 15 d
Method in brief: as §2

[9] = test system: ducksalad (Heteranthera limosa); experiment: Test B flooded paddy test; details: Flood, 250 g ai/ha; 0 to 100 scale where 0 is no effect and 100 is complete control; 13 to 15 d
Method in brief: as §2

[10] = test system: wheat (Triticum aestivum); experiment: Test A postemergence; details: postemergence, 0 to 100 scale (0 no effect, 100 complete control)
Method in brief: as §1

[11] = test system: pigweed (Amaranthus retroflexus); experiment: Test A postemergence; details: postemergence, 0 to 100 scale (0 no effect, 100 complete control)
Method in brief: as §1

Kochia (Kochia scoparia) [12] = experiment: Test A postemergence; details: postemergence, 0 to 100 scale (0 no effect, 100 complete control)
Method in brief: as §1

corn (Zea mays) = experiment: Test A postemergence; details: postemergence, 0 to 100 scale (0 no effect, 100 complete control)
Method in brief: as §1

[13] = test system: blackgrass (Alopecurus myosuroides); experiment: Test A postemergence; details: postemergence, 0 to 100 scale (0 no effect, 100 complete control)
Method in brief: as §1

[14] = test system: ragweed (common ragweed, Ambrosia elatior); experiment: Test A postemergence; details: postemergence, 0 to 100 scale (0 no effect, 100 complete control)
Method in brief: as §1

[15] = test system: barnyardgrass (Echinochloa crus-galli); experiment: Test A postemergence; details: postemergence, 0 to 100 scale (0 no effect, 100 complete control)
Method in brief: as §1

[16] = test system: ryegrass, Italian (Italian ryegrass, Lolium multiflorum); experiment: Test A postemergence; details: postemergence, 0 to 100 scale (0 no effect, 100 complete control)
Method in brief: as §1

[17] = test system: giant foxtail (Setaria faberii); experiment: Test A postemergence; details: postemergence, 0 to 100 scale (0 no effect, 100 complete control)
Method in brief: as §1

[18] = test system: Galium (catchweed bedstraw, Galium aparine); experiment: Test A postemergence; details: postemergence, 0 to 100 scale (0 no effect, 100 complete control)
Method in brief: as §1

[19] = 125 g ai/ha, Preemergence, visual injury after approximately 10 d, 0 to 100 scale where 0 is no effect and 100 is complete control
[20] = 500 g ai/ha, preemergence, 0 to 100 scale, 0 = no effect, 100 = complete control
[21] = 125 g ai/ha, visual rating after approx. 10 d
[22] = 500 g ai/ha, visual injury, approx. 10 d

SMILES: CC(C)Oc1cccc(C2CN(C)C(=O)C2C(=O)Nc2ccccc2C(F)(F)F)c1 (stereo not drawn) [Compound 652]
- Plant response rating, Pigweed [1, 19]: 0
- Plant response rating, Pigweed [1, 20]: 30
- Plant response rating, Kochia (Kochia (Kochia scoparia) [2]; [19]): 0
- Plant response rating, Kochia (Kochia (Kochia scoparia) [2]; [20]): 30
- Plant response rating, Ragweed [3, 19]: 0
- Plant response rating, Ragweed [3, 20]: 0
- Plant response rating, Barnyardgrass [4, 19]: 90
- Plant response rating, Barnyardgrass [4, 20]: 90
- Plant response rating, Ryegrass, Italian [5, 19]: 60
- Plant response rating, Ryegrass, Italian [5, 20]: 60
- Plant response rating, Foxtail, Giant [6, 19]: 100
- Plant response rating, Foxtail, Giant [6, 20]: 100
- Plant response rating, Rice (rice (Oryra sativa)): 0
- Plant response rating, Sedge, Umbrella [7]: 0
- Plant response rating, Barnyardgrass [8]: 40
- Plant response rating, Ducksalad [9]: 65
- Plant response rating, Wheat [10, 21]: 0
- Plant response rating, Wheat [10, 22]: 40
- Plant response rating, Pigweed [11, 21]: 0
- Plant response rating, Pigweed [11, 22]: 20
- Plant response rating, Kochia (Kochia (Kochia scoparia) [12]; [21]): 0
- Plant response rating, Kochia (Kochia (Kochia scoparia) [12]; [22]): 0
- Plant response rating, Corn (corn (Zea mays); [21]): 30
- Plant response rating, Corn (corn (Zea mays); [22]): 60
- Plant response rating, Blackgrass [13, 21]: 60
- Plant response rating, Blackgrass [13, 22]: 70
- Plant response rating, Ragweed [14, 21]: 0
- Plant response rating, Ragweed [14, 22]: 0
- Plant response rating, Barnyardgrass [15, 21]: 90
- Plant response rating, Barnyardgrass [15, 22]: 90
- Plant response rating, Ryegrass, Italian [16, 21]: 50
- Plant response rating, Ryegrass, Italian [16, 22]: 70
- Plant response rating, Foxtail, Giant [17, 21]: 80
- Plant response rating, Foxtail, Giant [17, 22]: 90
- Plant response rating, Galium [18, 21]: 30
- Plant response rating, Galium [18, 22]: 50
